For test [1], the target named is Adenosine A2 receptor (Rattus norvegicus, UniProt P29276+P30543). Briefly: Binding affinity to A2 adenosine receptor from rat striatal membrane in presence of [3H]5'-(N-ethylcarboximido)-adenosine.
The target in test [2] is T1, Adenosine receptor A1 (Rattus norvegicus, UniProt P25099).
T1 sequence (P25099 whole entry): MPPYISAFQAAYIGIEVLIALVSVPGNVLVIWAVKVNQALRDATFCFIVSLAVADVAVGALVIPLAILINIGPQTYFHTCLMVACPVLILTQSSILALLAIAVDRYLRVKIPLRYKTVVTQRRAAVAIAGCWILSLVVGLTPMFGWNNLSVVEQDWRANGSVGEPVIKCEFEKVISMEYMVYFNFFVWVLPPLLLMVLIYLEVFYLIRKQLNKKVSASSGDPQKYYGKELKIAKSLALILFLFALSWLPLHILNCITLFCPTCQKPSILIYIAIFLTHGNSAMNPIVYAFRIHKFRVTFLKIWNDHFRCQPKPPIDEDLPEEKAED
Briefly: Binding affinity to A1 adenosine receptor from rat cortical membrane in presence of [3H]R-(phenylisopropyl)-adenosine.

For test [3], the target named is Adenosine A2 receptor (Rattus norvegicus) (UniProt P29276+P30543). Briefly: Percent inhibition of [3H]5'-(N-ethylcarboximido)-adenosine (NECA) binding to A2 adenosine receptor. The class given is protein assay. On the set-up: concentration or dose not given beside the values. As to conditions: concentration not given here.
Test [4] addresses T2, Adenosine receptor A1 (Rattus norvegicus) (UniProt P25099).
T2 sequence (whole entry): T1 sequence (P25099 whole entry)
Briefly: Percent inhibition of [3H]R-(phenylisopropyl)-adenosine (PIA) binding to A1 adenosine receptor. Particulars: concentration not given here.

pKi: −log10 of the molar value. Where only a bound is given, the exact number is not on record here.

Broadly, the Ki is a dissociation constant, usually derived from enzyme kinetics or from competition with a known ligand. The pKi is −log10 of the Ki, conventionally taken in molar units. What is called inhibition is how much of the control response was suppressed.

Take `CCCn1c(=O)c2c(nc(-c3ccccc3)n2C)n(CCC)c1=O`: the Ki in test [1] turned out to be 15 µM.
Take `CCCn1c(=O)c2[nH]c(N(C)C)cc2n(CCC)c1=O`: in test [2], the pKi is 6.89. In test [1], the inhibition constant (Ki) was 16 µM.
As for `CCCn1c(=O)c2c(cc(-c3ccccc3)n2C)n(CCC)c1=O`, in test [1], the inhibition constant (Ki) was 5.2 µM.
`Cn1c(=O)c2[nH]c(-c3ccccc3)cc2n(C)c1=O`: the pKi in test [2] is 7.33. Also, the inhibitory constant (Ki) in test [1] turned out to be 0.51 µM.
Regarding `Cn1c(=O)c2cc[nH]c2n(C)c1=O`, the negative logarithm of the Ki (pKi) in test [2] was 4.37. For the same compound, in test [3], the inhibition was found to be 39%. For the same compound, the Ki in test [1] is greater than 250 µM.
In the case of `Cn1c(=O)c2[nH]c(/C=C/c3ccccc3)cc2n(C)c1=O`, the pKi in test [2] was 6.78. The Ki in test [1] amounted to 0.64 µM.
For the compound `Cn1c(=O)c2[nH]c(-c3ccc4ccccc4c3)cc2n(C)c1=O`, the pKi in test [2] is 7.59. In test [3], this compound yielded an inhibition of 34%. Besides, the Ki in test [1] is greater than 0.5 µM.
With `Cn1c(=O)c2c(cc(-c3ccccc3)n2C)n(C)c1=O`, in test [1], the inhibitory constant (Ki) turned out to be 14 µM.
`Cn1c(=O)c2cc(-c3ccccc3)[nH]c2n(C)c1=O`: in test [2], the pKi was 5.51. In addition, the Ki in test [1] is 12 µM.
As to `Cn1c(=O)c2c(cc(-c3cccc4ccccc34)n2C)n(C)c1=O`, the negative logarithm of the Ki (pKi) in test [2] was 5.04. The inhibition in test [3] was determined as 22%. Moreover, the inhibitory constant (Ki) in test [1] was greater than 30 µM.
Consider `Cn1c(=O)c2c(cc(-c3ccc4ccccc4c3)n2C)n(C)c1=O`, for which the pKi in test [2] is 6.57. Besides, the Ki in test [1] is 1.1 µM.
The matching figures for `CCCn1c(=O)[nH]c2cc[nH]c2c1=O`: 5.77 and 18 µM.
The matching figures for `Cn1c(=O)c2cc(-c3ccccc3)n(C)c2n(C)c1=O`: 4.96 and 40 µM.
In the case of `CCCn1c(=O)c2c(ncn2C)n(CCC)c1=O`, in test [1], the inhibition constant (Ki) turned out to be 10 µM.
With `Cn1c(=O)c2c(cc(-c3ccc4ccccc4c3)n2O)n(C)c1=O`, the pKi in test [2] is 6.66. Further, the Ki in test [1] came to 1 µM.
The matching figures for `Cn1c(=O)[nH]c2cc[nH]c2c1=O`: 5.54 and 34 µM.
The matching figures for `CCCn1c(=O)c2[nH]ccc2n(CCC)c1=O`: 6.36 and 5.1 µM.
The matching figures for `CCCn1c(=O)c2[nH]c(-c3ccccc3)cc2n(CCC)c1=O`: 7.89 and 0.45 µM.
For the compound `Cn1c(=O)[nH]c2cc(-c3ccccc3)[nH]c2c1=O`, the pKi in test [2] was 7.01. Also, in test [1], the Ki stood at 2 µM.
For `Cn1c(=O)c2c(cc(-c3cccc4ccccc34)n2O)n(C)c1=O`, the pKi in test [2] is less than 4.52. For the same compound, the figures for the inhibition in test [3] and in test [4] were 38% and 47%, respectively. In addition, the Ki in test [1] was greater than 100 µM.
As for `Cn1c(=O)c2[nH]ccc2n(C)c1=O`, the pKi in test [2] is 5.27. Further, the inhibitory constant (Ki) in test [1] was found to be 12 µM.
As to `Cn1c(=O)c2c(nc(-c3ccccc3)n2C)n(C)c1=O`, the inhibition constant (Ki) in test [1] is 25 µM.
`Cn1c(=O)c2[nH]c(-c3cccc4ccccc34)cc2n(C)c1=O`: in test [2], the pKi was less than 4.52. Besides, the values for the inhibition in test [3] and in test [4] were 1.2% and 33%, respectively. Further, in test [1], the inhibition constant Ki is greater than 30 µM.
For the compound `CCCn1c(=O)c2c(ccn2C)n(CCC)c1=O`, the pKi in test [2] is 5.64. The inhibitory constant (Ki) in test [1] was 13 µM.
The matching figures for `Cn1c(=O)c2c(cc(/C=C/c3ccccc3)n2C)n(C)c1=O`: 5.59 and 0.26 µM.
Take `Cn1c(=O)c2nc(-c3ccccc3)[nH]c2n(C)c1=O` [8-PHENYL THEOPHYLLINE]: in test [1], the Ki was found to be 0.83 µM.
As to `Cn1c(=O)c2c(ccn2C)n(C)c1=O`, the pKi in test [2] is 4.49. In addition, the Ki in test [1] came out at 72 µM.
In the case of `Cn1c(=O)c2c(cc(/C=C/c3ccccc3)n2O)n(C)c1=O`, the pKi in test [2] was 6.25. In addition, the Ki in test [1] is 1.8 µM.
Regarding `CCCn1c(=O)[nH]c2cc(-c3ccccc3)[nH]c2c1=O`, in test [2], the pKi is 7.41. The inhibitory constant (Ki) in test [1] was found to be 1.2 µM.

For the origin of these results see ChEMBL document CHEMBL1127516, “Synthesis and structure-activity relationships of deazaxanthines: analogs of potent A1- and A2-adenosine receptor antagonists” (J Med Chem, 1994).
